Test results published in patent US5747235A, “Silver halide light sensitive emulsion layer having enhanced photographic sensitivity” (Eastman Kodak Company, priority 1996, dated 1998).
Where a name gives a salt, the structure may show the parent alone.

Experiments:
[1] = fragmentation rate constant kfr by laser flash photolysis; format: physicochemical; conditions: Table H; model compound, A and L replaced by alkyl
Source text: The kinetics of the bond cleavage or fragmentation reaction can be measured by conventional laser flash photolysis. […] The specific experimental apparatus we used to measure fragmentation rate constants and radical oxidation potentials is described in detail below.
(b) Fragmentation Rate Constant Determination
These absorptions were used to determine the kinetics of the fragmentation reactions of the radical cations of the X-Y. Excitation of 9,10-dicyanoanthracene (DCA) in the presence of biphenyl and the X-Y donor, as described above, results in the formation of the DCA^.cndot.- and the X-Y^.cndot.+. By using a concentration of X-Y of ca. 10^-2 M, the X-Y^.cndot.+ can be formed within ca. 20 ns of the laser pulse. […] The monitoring wavelengths used were somewhat different for the different donors, but were mostly around 470-530 nm. […] Alternatively, when the decay rate of the X-Y^.cndot.+ was less than 10^6 s^-1, the solutions were purged with oxygen.
The experiments measuring the fragmentation rate constants were performed in acetonitrile with the addition of 20% water, so that all of the salts could be easily solubilized. Most experiments were performed at room temperature. […] When this happened, the fragmentation rate constants were measured as a function of temperature, and the rate constant at room temperature determined by extrapolation.

[2] = oxidation potential E2 of radical X by laser flash photolysis; format: physicochemical; conditions: Table H; model compound, A and L replaced by alkyl
Source text: In this technique, the compound X-Y is oxidized by an electron transfer reaction initiated by a short laser pulse. The oxidized form of X-Y then undergoes the bond cleavage reaction to give the radical X^.cndot.. X^.cndot. is then allowed to interact with various electron acceptor compounds of known reduction potential. […] The experimental details are set forth more fully below. The oxidation potentials (E2) for radicals X^.cndot. for typical compounds useful in accordance with our invention are given in Table C. Where only limits on potentials could be determined, the following notation is used: <-0.90 V should be read as "more negative than -0.90 V" and >-0.40 V should be read as "less negative than -0.40 V".
(a) Oxidation Potential of Radical X.cndot.
The laser flash photolysis measurements were performed using a nanosecond pulsed excimer (Questek model 2620, 308 nm, ca. 20 ns, ca. 100 mJ) pumped dye laser (Lambda Physik model FL 3002). The laser dye was DPS (commercially available from Exciton Co.) in p-dioxane (410 nm, ca. 20 ns, ca. 10 mJ). The analyzing light source was a pulsed 150W xenon arc lamp (Osram XBO 150/W). The arc lamp power supply was a PRA model 302 and the pulser was a PRA model M-306. The pulser increased the light output by ca. 100 fold, for a time period of ca. 2-3 ms. The analyzing light was focussed through a small aperture (ca. 1.5 mm) in a cell holder designed to hold 1 cm^2 cuvettes. The laser and analyzing beams irradiated the cell from opposite directions and crossed at a narrow angle (ca. 15°). After leaving the cell, the analyzing light was collimated and focussed onto the slit (1 mm, 4 nm bandpass) of an ISA H-20 monochromator. The light was detected using 5 dynodes of a Hamamatsu model R446 photomultiplier. The output of the photomultiplier tube was terminated into 50 ohm, and captured using a Tektronix DSA-602 digital oscilloscope. The entire experiment is controlled from a personal computer.
The experiments were performed either in acetonitrile, or a mixture of 80% acetonitrile and 20% water. The first singlet excited state of a cyanoanthracene (A), which acted as the electron acceptor, was produced using the nanosecond laser pulse at 410 nm. […] Secondary electron transfer then occurred between B^.cndot.+ and the lower oxidation potential electron donor X-Y, to generate X-Y^.cndot.+ in high yield. For the investigations of the oxidation potentials of the radicals X^.cndot., typically the cyanoanthrancene concentration was ca. 2×10^-5 M to 10^-4 M the biphenyl concentration was ca. 0.1M. The concentration of the X-Y donor was ca. 10^-3 M. The rates of the electron transfer reactions are determined by the concentrations of the substrates. The concentrations used ensured that the A^.cndot.- and the X-Y^.cndot.+ were generated within 100 ns of the laser pulse. The radical ions could be observed directly by means of their visible absorption spectra. The kinetics of the photogenerated radical ions were monitored by observation of the changes in optical density at the appropriate wavelengths.
The reduction potential (Ered) of 9,10-dicyanoanthracene (DCA) is -0.91 V. In a typical experiment, DCA is excited and the initial photo-induced electron transfer from the biphenyl (B) to the DCA forms a DCA^.cndot.-, which is observed at its characteristic absorption maximum (λobs =705 nm), within ca. 20 ns of the laser pulse. Rapid secondary electron transfer occurs from X-Y to B^.cndot.+ to generate X-Y^.cndot.+, which fragments to give X^.cndot.. A growth in absorption is then observed at 705 nm with a time constant of ca. 1 microsecond, due to reduction of a second DCA by the X^.cndot.. The absorption signal with the microsecond growth time is equal to the size of the absorption signal formed within 20 ns.
If the oxidation potential of X^.cndot. is not sufficiently negative to reduce DCA, an estimate of its oxidation potential was obtained by using other cyanoanthracenes as acceptors. […]

[3] = oxidation potential E1 by cyclic voltammetry; format: physicochemical; conditions: for E1 (V) for XY moiety: Table H, model compound, A and L replaced by alkyl
Protocol: Oxidation potentials are well known and can be found, for example, in "Encyclopedia of Electrochemistry of the Elements", Organic Section, Volumes XI-XV, A. Bard and H. Lund (Editors) Marcel Dekker Inc., NY. (1984). E1 can be measured by the technique of cyclic voltammetry. In this technique, the electron donating compound is dissolved in a solution of 80%/20% by volume acetonitrile to water containing 0.1M lithium perchlorate. Oxygen is removed from the solution by passing nitrogen gas through the solution for 10 minutes prior to measurement. A glassy carbon disk is used for the working electrode, a platinum wire is used for the counter electrode, and a saturated calomel electrode (SCE) is used for the reference electrode. Measurement is conducted at 25° C. using a potential sweep rate of 0.1 V/sec. The oxidation potential vs. SCE is taken as the peak potential of the cyclic voltammetric wave.

[4] = Example 2: photographic speed and fog, 365 nm exposure, acids vs corresponding esters, emulsion T-1; parameters: Fog: unit not given here; conditions: for Fog / S365: undyed; for S365: control=100
Protocol: This chemically sensitized emulsion was then used to prepare the experimental coating variations indicated in Table I. All of the experimental coating variations in Table I contained the hydroxybenzene 2,4-disulfocatechol (HB3) at a concentration of 13 mmole/mole Ag, added to the melt before the addition of any further addenda. The fragmentable electron donor compounds as indicated in Table I were added from an aqueous potassium bromide solution, or from a methanol solution, before additional water, gelatin, and surfactant were added to the emulsion melts.
(§1) For photographic evaluation, each of the coating strips was exposed for 0.1 sec to a 365 nm emission line of a Hg lamp filtered through a Kodak Wratten filter number 18A and a step wedge ranging in density from 0 to 4 density units in 0.2 density steps. The exposed film strips were developed for 6 min in Kodak Rapid X-ray Developer (KRX). S365, relative sensitivity at 365 nm, was evaluated at a density of 0.2 units above fog.
The coatings described in Table II all contain the hydroxybenzene, 2,4-disulfocatechol (HB3) at a concentration of 13 mmole/mole Ag, added to the melt before any further addenda.

[5] = Example 10: photographic sensitivity and fog, color format, blue sensitized emulsion T-2; conditions: for Photographic Sensitivity SWR2B: control=100
Protocol: The hydroxybenzene, 2,4-disulfocatechcol (HB3) at a concentration of 13×10^-3 mole/mole Ag was added to the emulsion melt before the start of the chemical sensitization procedure. […] The fragmentable two-electron donors S-3, S-9, S-6, or S-8 were then added to the emulsion melt.
The melts were prepared for coating by adding additional water, deionized gelatin and coating surfactants. Coatings were prepared by combining the emulsion melts with a melt containing deionized gelatin and an aqueous dispersion of the cyan-forming color coupler CC-1 and coating the resulting mixture on acetate support. […] The structure of the color coupler CC-1 is given below: [drawing 120]
For photographic evaluation, each of the coating strips was exposed for 0.01 sec to a 3000K color temperature tungsten lamp filtered to give an effective color temperature of 5500K and further filtered through a Kodak Wratten filter number 2B, and a step wedge ranging in density from 0 to 4 density units in 0.20 density steps. This exposure gives light absorbed mainly by the blue sensitizing dye. The exposed film strips were developed for 31/4 minutes in Kodak C-41 color developer. SWR2B, relative sensitivity for this filtered exposure, was evaluated at a cyan density of 0.15 units above fog.

[6] = Example 5: photographic speed and fog, 365 nm exposure, fragmenting vs non-fragmenting one-electron donors, emulsion T-2; parameters: Fog: unit not given here; conditions: for sensitivity and fog change: undyed T-2 emulsion
Protocol: as §1
An AgBrI tabular silver halide emulsion (Emulsion T-2) was prepared containing 4.05% total I distributed such that the central portion of the emulsion grains contained 1.5% I and the perimeter area contained substantially higher I, as described by Chang et. al., U.S. Pat. No. 5,314,793. […] This emulsion was precipitated using deionized gelatin. The emulsion was sulfur sensitized by adding 8.5×10^-6 mole 1,3-dicarboxymethyl-1,3-dimethyl-2-thiourea /mole Ag at 40° C.; the temperature was then raised to 60° C. at a rate of 5° C./3 min and the emulsions held for 20 min before cooling to 40° C. The chemically sensitized emulsion was then used to prepare coatings containing the fragmentable two-electron donor compounds. […] Where present, the blue sensitizing dye D-I or the red sensitizing dye D-II were added from methanol solution to the emulsion at 40° C. after the chemical sensitization and disulfocatechol addition. The fragmentable two-electron donor compounds were added to the emulsion at 40° C. and the coatings were prepared and tested as described in Example 1, except that the additional gelatin used to prepare the coatings described in Table III was deionized gelatin.
Where present, the sensitizing dye D-II was added from methanol solution to the emulsion at 40° C. after the chemical sensitization but before the addition of the one-electron donating compound. The coatings were tested for their response to a 365 nm exposure as described in Example 1. For this exposure, the relative sensitivity was set equal to 100 for the control coating with no one-electron donating compound added.

[7] = 0.044 x10^-3 mole/mole Ag, dye D-II 0.86 x10^-3
[8] = 0.044 x10^-3 mole/mole Ag, dye D-II 0.86 x10^-3, dyed control 69
[9] = 0.044 x10^-3 mole/mole Ag, no dye, no HB3
[10] = 0.044 x10^-3 mole/mole Ag, no dye, no HB3, control=100
[11] = 0.14 x10^-3 mole/mole Ag, dye D-II 0.86 x10^-3
[12] = 0.14 x10^-3 mole/mole Ag, dye D-II 0.86 x10^-3, dyed control 69
[13] = 0.14 x10^-3 mole/mole Ag, no dye, no HB3
[14] = 0.14 x10^-3 mole/mole Ag, no dye, no HB3, control=100

SMILES: CCSCCN(c1ccc(OC)cc1)C(C)C(=O)O (centres unmarked) [Compound S-1, sodium salt]
- kfr (s^-1) for XY moiety [1]: 1.1e+06 s⁻¹
- E2 (V) for XY moiety [2]: < -0.9 V
- E1 (V) for XY moiety [3]: 0.22 V
- E1 (V) ([3]; Table II): 0.35 V
- Fog ([4]; 0.00022 x10^-3 mole/mole Ag): 0.06
- S365 ([4]; 0.00022 x10^-3 mole/mole Ag): 107
- Fog ([4]; 0.00070 x10^-3 mole/mole Ag): 0.28
- S365 ([4]; 0.00070 x10^-3 mole/mole Ag): 89
- Fog ([4]; 0.00220 x10^-3 mole/mole Ag): 0.82
- speed and fog change ([4]; undyed T-1 emulsion): both speed and fog increases

SMILES: CCSCCN(CC(=O)[O-])c1ccc(C)cc1.[Na+] [Compound S-6, N-(4-Methylphenyl)-N-(2-ethylthio-ethyl)glycine sodium salt]
- Fog ([5]; 0.022 x10^-3 mol/mol Ag): 0.14
- Photographic Sensitivity SWR2B ([5]; 0.022 x10^-3 mol/mol Ag): 120
- Fog ([5]; 0.07 x10^-3 mol/mol Ag): 0.21
- Photographic Sensitivity SWR2B ([5]; 0.07 x10^-3 mol/mol Ag): 126
- E1 (V) ([3]; Table X): 0.45 V

SMILES: CCSCCN(CCSCC)c1ccc(CC(=O)O)cc1 [Compound S-17, Sodium 2-(4-N,N-bis(ethylthioethyl)aminophenyl)acetate]
- Fog [6, 7]: 0.11
- S365 [6, 8]: 80
- Fog [6, 9]: 0.05
- S365 [6, 10]: 110
- Fog [6, 11]: 0.11
- S365 [6, 12]: 89
- Fog [6, 13]: 0.06
- S365 [6, 14]: 120
- sensitivity and fog change [6]: increased the 365 nm sensitivity of the undyed emulsion
- kfr (s^-1) for XY moiety [1]: ≈ 3 × 10^5 s^-1
- E2 (V) for XY moiety [2]: < -0.5 V
- E1 (V) for XY moiety [3]: 0.57 V
- E1 (V) ([3]; Table V): 0.62 V

SMILES: CCSCCNC(=O)CCN(CC)c1ccc(CC(=O)O)cc1 [Compound S-18]
- Fog [6, 7]: 0.05
- S365 [6, 8]: 95
- Fog [6, 9]: 0.05
- S365 [6, 10]: 135
- Fog [6, 11]: 0.06
- S365 [6, 12]: 107
- Fog [6, 13]: 0.06
- S365 [6, 14]: 148
- sensitivity and fog change [6]: increased the 365 nm sensitivity of the undyed emulsion
- kfr (s^-1) for XY moiety [1]: ≈ 3 × 10^5 s^-1
- E2 (V) for XY moiety [2]: < -0.5 V
- E1 (V) for XY moiety [3]: 0.57 V
- E1 (V) ([3]; Table V): 0.68 V
